From US20070129438A1 (priority 2002, published 2007)

Target: abnormal prion protein (Ovis aries, UniProt P23907)
Assay type: biochemical, sheep

Sequence of abnormal prion protein (P23907 25-233 limits assumed): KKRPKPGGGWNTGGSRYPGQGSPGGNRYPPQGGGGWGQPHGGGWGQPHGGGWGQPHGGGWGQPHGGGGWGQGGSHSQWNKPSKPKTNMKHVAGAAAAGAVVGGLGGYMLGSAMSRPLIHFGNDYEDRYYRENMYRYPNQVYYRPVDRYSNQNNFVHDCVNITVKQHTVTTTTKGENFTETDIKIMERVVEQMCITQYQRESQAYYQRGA

SMILES: CC(C)C[C@H](N)C(=O)O [leucine]
- suppression of proliferation of abnormal prion protein in vitro (leucine 15 mg/mL, PMCA): effectively suppressed proliferation of abnormal prion protein
- bands of PK resistant fragments after PMCA (Western blotting) (leucine final concentration 15 mg/mL, up to 10 cycles of incubation-sonication, PK 50 μg/mL): no prominent bands were formed
